Experimental data from patent publication US20090220429A1, “METHOD AND A SYSTEM FOR ASSESSING NEUROLOGICAL CONDITIONS” (METIS CURA EHF, priority 2005, published 2009).

How the values were obtained:
[1] = tested on: subjects with dementia of the Alzheimer's type (AD group) and healthy control group; assay: Clinical trial: EEG recorded before and after intravenous scopolamine as probe compound, feature pair classification of AD group versus control group; format: in vivo, human; settings: for number of feature pair classifiers scoring 80% or better: features 33-48 (ratios before/after administration), P3-P4 montage, leave one out
Description: The effectiveness of the invention has been verified in a clinical trial. The participants in the trial were divided in two groups. One group consisted of 10 elderly subjects that have been diagnosed with, mild to moderate, dementia of the Alzheimer's type (AD group). A second age-matched group of 10 healthy individuals (i.e. non-AD individuals) was included as a control group.
The AD-group of participants consisted of patients in follow-up surveillance in the memory clinic at the Department of Geriatrics in Landspitali University Hospital, Reykjavik, Iceland. The group consisted of patients with Alzheimer's Disease (AD) (N=10) according to ICD-10. The other group consisted of normal Control participants (N=10), who were recruited from relatives of demented patients attending a day-care center.
To be eligible for participation in the study the subjects had to be in the range of 60-80 years of age, in good general health as determined by standard physical examination, with no acute changes on ECG. Exclusion criteria included smoking or any other use of tobacco (also excluding those that had stopped tobacco use about a week or less prior to the trial), treatment with neuroleptics and benzodiazepines, impaired liver- or kidney function, hypersensitivity to scopolamine, indication of drug, alcohol or medical abuse, glaucoma or possibility of raised intraocular pressure with administration of scopolamine. Prior to the screening visit the subjects were interviewed by phone. The AD subjects were selected from hospital records. All the AD patients in the follow-up program at the Memory Clinic were being treated with anti-dementia drugs. To minimize the variation between the subjects in the trial, the participants in the AD-group were selected from patients that were being treated with the same cholinesterase-inhibitor, Reminyl® (galantamine HBr).
Electroencephalographic neurophysiological signals were recorded from each of the subjects. The recording protocol was divided into two parts 105, 107 or sessions which were identical. In between the sessions the provided substance 101 substance scopolamine was administered intravenously, see FIG. 10. Within each section a two-minute period was recorded while the subject was instructed to be at rest with eyes closed. The data collected from these periods were used to estimate the individual features. The substance scopolamine was chosen based on its effects perturbing biophysical pathways that are known to deteriorate in subjects suffering from Alzheimer's disease. […]
The electroencephalographic signals were recorded using computerized measuring equipment, see FIG. 11. […]
These features were evaluated using a part of the first section where the subjects were at rest with eyes closed. […]

[2] = tested on: early DAT subjects compared to controls; settings: 1-3 min post-injection; no significant group difference at baseline; cited from earlier work

Row | Compound | classification performance ([1]; 3-NN scheme, FIG. 15, response feature set versus pre-administration feature set) | number of feature pair classifiers scoring 80% or better ([1]; 3-NN scheme, 4 with pre-administration features 1-16) | number of feature pair classifiers scoring 80% or better ([1]; SVM classification scheme, 5 with pre-administration features 1-16) | separation between the AD and control groups for a feature pair ([1]; ratio of feature values pre- and post-administration (FIG. 14) versus features before administration (FIG. 13)) | beta power response in the frontal region, early DAT subjects compared to controls [2]
1 | CN1[C@@H]2C[C@@H](OC(=O)[C@H](CO)c3ccccc3)C[C@H]1[C@@H]1O[C@@H]12 [scopolamine] | substantially enhanced classification performance | 29 | 23 | significantly better separation between the groups | 
2 | CCCC(C)C1(CC)C(=O)NC(=S)NC1=O (centres unmarked) [thiopental] |  |  |  |  | significantly smaller beta power response
